Assay results from US9932288B2, “Chemical compound for inhibition of SHP2 function and for use as an anti-cancer agent” (West Virginia University, priority 2015, dated 2018).
Values joined by “and” are separate entries in the source; they are usually repeats but may differ in a detail not shown here. Equal entries are not always repeated.

Assays:
[1] = test system: EGFR-amplified MDA-MB468 basal-like breast cancer cell line; experiment: 2D culture cell growth and cell death, MDA-MB468; type: cell-based; settings: MDA-MB468, 2D culture
Experimental: (§1) Therefore, the anti-cancer activity of CNBDA was tested in breast cancer cells under 2-dimensional (culture plates), soft agar, and suspension cultures. Because SHP2 is an essential downstream mediator of receptor tyrosine kinase (RTK) signaling, including HER2 and HER1 [24, 25], breast cancer cells that harbor dysregulated RTK and SHP2 signaling were chosen for testing the effect of CNDBA. Accordingly, the BT474 cell line that overexpress the human epidermal growth factor receptor 2 (HER2) and the MDA-MB468 cell line that overexpress HER1 (also known as EGFR) were used. The non-transformed MCF-10A breast epithelial cells were used as a “normal” control in these studies. The BT474 cells were grown in RPMI 1640, while the MDA-MB468 cells were grown in Dulbecco's Modified Eagle's Medium (DMEM), both supplemented with 10% fetal calf serum. On the other hand, the MCF-10A cells were grown in DMEM supplemented with […] recombinant human insulin, 20 ng/ml EGF (PeproTech), […] hydrocortisone, 100 ng/ml cholera toxin (Sigma) and 5% horse serum, as described previously. All cells were grown in a 37° C. incubator supplied with 5% CO2. […] In the HER2-positive BT474 breast cancer cell line, CNBDA suppressed cell growth at the lowest concentration used (100 ng/ml) as determined by absence of gradual increase in cell density (FIG. 6A). […]

[2] = target: T1, PTP domain of SHP1 fused to GST (Homo sapiens, UniProt P29350); experiment: phosphatase assay with DiFMUP substrate, GST-PTP of SHP1; type: biochemical; settings: DiFMUP 20 μM, 30° C., pH7.0
T1 construct: The PTP domains of SHP2 and SHP1 fused to glutathione-S-transferase (GST-PTPs) were expressed in E. coli; GST (N); made in house; host or cells: E. coli
T1 sequence (P29350 244-515 limits assumed): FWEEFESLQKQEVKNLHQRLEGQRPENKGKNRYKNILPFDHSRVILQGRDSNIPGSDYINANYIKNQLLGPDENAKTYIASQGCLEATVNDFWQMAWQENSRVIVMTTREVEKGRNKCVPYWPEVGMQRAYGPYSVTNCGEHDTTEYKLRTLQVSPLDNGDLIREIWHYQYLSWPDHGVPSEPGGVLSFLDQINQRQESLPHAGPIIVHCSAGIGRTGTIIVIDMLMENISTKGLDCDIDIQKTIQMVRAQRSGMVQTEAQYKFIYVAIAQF
Experimental: (§2) The effect of CNBD on the SHP2 phosphatase activity was tested using the artificial substrate DiFMUP (6,8-difluoro-4-methylumbelliferyl) at a concentration of 20 μM, which is commonly used in phosphatase assays. CNBDA concentrations of 1.94 mM, 194 μM, 97 μM, 48.5 μM, 24.25 μM, 19.4 μM, 12.9 μM, and 1.94 μM in water were used in the analysis. The PTP domains of SHP2 and SHP1 fused to glutathione-S-transferase (GST-PTPs) were expressed in E. coli using a standard protein expression protocol and purified on glutathione sepharose beads as recommended by the manufacturer (Pharmacia), and quantified by measuring absorbance at 280 nm and comparison with BSA standards. Reactions were performed at 30° C. in 100 μl volume of PTPase buffer containing 25 mM Tris-HCl pH7.0, 50 mM NaCl, 2 mM EDTA and 10 mM dithiothreitol (DTT). Change in absorbance (production of DiFMU, dephosphorylated form of DiFMUP) was followed in a plate-reading visible spectrophotometer at 450 nm.

[3] = test system: non-tumorigenic MCF-10A breast epithelial cells; experiment: 2D culture cell growth, MCF-10A normal control; type: cell-based
Experimental: as §1

[4] = test system: MDA-MB468 cells; experiment: soft agar anchorage-independent growth, MDA-MB468; type: cell-based
Experimental: (§3) Next, the efficacy of CNBDA was evaluated by the soft agar assay, a technique commonly used to determine ability of cells to grow in an anchorage-independent manner, one of the hall marks of a cancer cell. The HER2-positive BT474 and the HER1-positive MDA-MB468 cells were seeded in soft agar, treated with placebo or CNBDA at variable concentrations, cultured for 10 days, and their ability to form colonies was monitored by observation under a microscope. […] While the placebo-treated BT474 and MDA-MB468 cells formed larger and numerous colonies in 10 days, the CNBDA-treated counterparts formed smaller and fewer ones (FIG. 6B). In addition, the concentration of CNBDA that abolished colony formation in soft agar was at least 4-fold lower than the amount that caused cell death in 2D cultures in both cell lines (compare FIGS. 6A and 6B).
(§4) Note than the number and size of colonies decreases as the concentration of CNBDA increases. Also note that the concentration of CNBDA that abolished colony formation in the HER2-positive BT474 breast cancer cell line is 2-fold lower than the amount used in the MDA-MB468 cells.

[5] = test system: BT474 cells; experiment: soft agar anchorage-independent growth, BT474; type: cell-based
Experimental: as §3, §4

[6] = target: T2, PTP domain of SHP2 fused to GST (Homo sapiens, UniProt Q06124); experiment: phosphatase assay with DiFMUP substrate, GST-PTP of SHP2; type: biochemical
T2 construct: The PTP domains of SHP2 and SHP1 fused to glutathione-S-transferase (GST-PTPs) were expressed in E. coli; GST (N); made in house; host or cells: E. coli
T2 sequence (Q06124 247-517 limits assumed): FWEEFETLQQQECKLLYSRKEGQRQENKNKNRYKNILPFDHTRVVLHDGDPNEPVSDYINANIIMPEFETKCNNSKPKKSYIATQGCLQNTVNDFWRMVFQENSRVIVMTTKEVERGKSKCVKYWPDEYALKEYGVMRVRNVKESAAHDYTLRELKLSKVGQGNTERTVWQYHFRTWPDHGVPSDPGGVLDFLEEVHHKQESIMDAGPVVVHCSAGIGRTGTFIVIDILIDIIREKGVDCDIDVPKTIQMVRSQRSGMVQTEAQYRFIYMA
Experimental: as §2

[7] = test system: BT474 cells; experiment: mammosphere formation in suspension culture, BT474; type: cell-based
Experimental: (§5) Finally, the effect of CNBDA on the above mentioned breast cancer cells (BT474 and MDA-MB468) was evaluated by the mammosphere formation assay in which cells with stem-like properties (including cancer stem cells) only can survive and form these structures. Briefly, cells were cultured in ultra-low adherence plates (1×10^6 cells per 6 cm plate) in a medium containing serum-free DMEM, 1 μg/ml hydrocortisone, 10 μg/ml insulin, 10 ng/ml EGF, 10 ng/ml FGF, 5 ng/ml heparin, and B27 (Invitrogen). After 10 days of culture, primary mammosphere formation was determined by observation under a microscope at which time pictures of mammospheres was taken at 4×objective. Next, the primary mammospheres were collected by centrifugation at 1000 rpm, dissociated to single cells by trypsination and pipetting, and re-cultured under same conditions to observe effect of SHP2 silencing on secondary mammosphere-forming capacity. Pictures of secondary cultures also were taken after 10 days at 4×objective. […] Similar to the anchorage-independent growth studies, the concentration of CNBDA that led to exhaustion of mammosphere formation was 4-5 fold lower than the amount needed for cell killing in the 2D cultures.
(§6) Note than the number and size of mammospheres decreases as the concentration of CNBDA increases.

[8] = test system: HER2-positive BT474 breast cancer cell line; experiment: 2D culture cell growth and cell death, BT474; type: cell-based; settings: BT474, 2D culture
Experimental: Therefore, the anti-cancer activity of CNBDA was tested in breast cancer cells under 2-dimensional (culture plates), soft agar, and suspension cultures. Because SHP2 is an essential downstream mediator of receptor tyrosine kinase (RTK) signaling, including HER2 and HER1 [24, 25], breast cancer cells that harbor dysregulated RTK and SHP2 signaling were chosen for testing the effect of CNDBA. Accordingly, the BT474 cell line that overexpress the human epidermal growth factor receptor 2 (HER2) and the MDA-MB468 cell line that overexpress HER1 (also known as EGFR) were used. The non-transformed MCF-10A breast epithelial cells were used as a “normal” control in these studies. The BT474 cells were grown in RPMI 1640, while the MDA-MB468 cells were grown in Dulbecco's Modified Eagle's Medium (DMEM), both supplemented with 10% fetal calf serum. On the other hand, the MCF-10A cells were grown in DMEM supplemented with […] recombinant human insulin, 20 ng/ml EGF (PeproTech), […] hydrocortisone, 100 ng/ml cholera toxin (Sigma) and 5% horse serum, as described previously. All cells were grown in a 37° C. incubator supplied with 5% CO2. In the 2D culture studies, cells were treated with vehicle alone (PBS: phosphate buffered saline) or three different concentration of CNBDA. When the density of cells reached approximately 30%, each plate was treated with vehicle alone (placebo) or the indicated concentrations of CNBDA. In the HER2-positive BT474 breast cancer cell line, CNBDA suppressed cell growth at the lowest concentration used (100 ng/ml) as determined by absence of gradual increase in cell density (FIG. 6A). But, at the 72 hour time point, it was possible to see signs of cell death as evidenced by shrinkage in the extended patchy growth property of these cells. At 500 ng/ml and higher concentrations, CNBDA induced cell death within 24 hours which became more evident gradually.
At the lowest concentration used, CNBDA was able to block cell growth and induction of cell death was apparent only after 48 hours. […]

[9] = test system: MDA-MB468 cells; experiment: mammosphere formation in suspension culture, MDA-MB468; type: cell-based
Experimental: as §5, §6

Which results are given for `CCCCCCCCCOc1c(CCCC(=O)O)cc(-c2ccc(C(=O)O)cc2)cc1CCCC(=O)O` [CNBDA]?
concentration showing effect, relative to BT474 cells [1]: double the concentration; minimum concentration needed to induce cell death after 48 hours ([1]; pilot studies): 1 µg/mL; IC50 [2]: 122 µM; effect on cell growth and cell death at the higher concentration used ([3]; 6 μg/ml): did not cause a significant decrease in cell growth or induce cell death; effect on cell growth ([3]; 2D culture): very little effect; concentration abolishing colony formation, fold lower than amount causing cell death in 2D culture ([4]; MDA-MB468): at least 4 fold; colony formation in soft agar ([4]; MDA-MB468, 10 days, concentration dependent): suppression of colony formation; concentration abolishing colony formation, fold lower than amount causing cell death in 2D culture ([5]; BT474): at least 4 fold; colony formation in soft agar ([5]; BT474, 10 days, concentration dependent): suppression of colony formation; concentration abolishing colony formation in BT474, fold lower than in MDA-MB468 ([5]; soft agar): 2 fold; mode of SHP2 inhibition [6]: competitive SHP2 inhibitor; IC50 ([6]; DiFMUP 20 μM, 30° C., pH7.0): 12 µM; selectivity for SHP2 over SHP1 ([6]; from IC50 values): 10 fold; concentration exhausting mammosphere formation, fold lower than amount needed for cell killing in 2D cultures ([7]; BT474): 4-5 fold; mammosphere formation ([7]; BT474, suspension culture, concentration dependent): suppressed mammosphere formation; concentration abolishing mammosphere formation in BT474, fold lower than in MDA-MB468 ([7]; suspension culture): 2 fold; concentration that induced cell death within 24 hours [8]: ≥ 500 ng/mL; time at which cell death became apparent at the lowest concentration ([8]; 100 ng/ml): 72 h and > 48 h; concentration that suppressed cell growth (lowest used) ([8]; absence of increase in cell density): 100 ng/mL; concentration exhausting mammosphere formation, fold lower than amount needed for cell killing in 2D cultures ([9]; MDA-MB468): 4-5 fold; mammosphere formation ([9]; MDA-MB468, suspension culture, concentration dependent): suppressed mammosphere formation
